Data: the NIST ThermoML archive (doi:10.1021/je1003065)

Test: mn = molality of the nth substance listed, in mol/kg
Details: Liquid, Vibrating tube method

[Br-].[Li+] [lithium bromide] + CCO
Details	mass density [kg/m3]
348.15 K, 5002 kPa, m1 = 0.2335	761.71
348.15 K, 5002 kPa, m1 = 1.462	838.72
348.15 K, 5004 kPa, m1 = 0.9499	807.6
348.15 K, 5004 kPa, m1 = 2.272	885.02
348.15 K, 5012 kPa, m1 = 2.833	915.98
348.15 K, 5024 kPa, m1 = 3.368	943.65
348.15 K, 5412 kPa, m1 = 0.5972	785.83
348.15 K, 10064 kPa, m1 = 0.9499	812.44
348.15 K, 19957 kPa, m1 = 2.833	928.46
348.15 K, 19985 kPa, m1 = 0.2335	776.82
348.15 K, 19985 kPa, m1 = 0.9499	821.56
348.15 K, 20024 kPa, m1 = 1.462	852.51
348.15 K, 29942 kPa, m1 = 0.9499	830.19
348.15 K, 29985 kPa, m1 = 3.368	963.31
348.15 K, 39784 kPa, m1 = 0.9499	838.22
348.15 K, 39945 kPa, m1 = 0.5972	816.93
348.15 K, 39947 kPa, m1 = 0.2335	794.15
348.15 K, 39957 kPa, m1 = 2.833	943.19
348.15 K, 39978 kPa, m1 = 3.368	970.26
348.15 K, 40002 kPa, m1 = 1.462	868.51
348.15 K, 49921 kPa, m1 = 2.272	920.25
348.15 K, 49926 kPa, m1 = 2.833	949.82
348.15 K, 49927 kPa, m1 = 0.9499	845.97
348.15 K, 59947 kPa, m1 = 0.2335	809.42
348.15 K, 59956 kPa, m1 = 0.5972	831.96
348.15 K, 59986 kPa, m1 = 1.462	882.36
348.15 K, 60002 kPa, m1 = 0.9499	853.14
348.15 K, 60024 kPa, m1 = 3.368	982.97
348.15 K, 69784 kPa, m1 = 0.9499	859.6
348.15 K, 69784 kPa, m1 = 2.272	932.62
348.15 K, 70024 kPa, m1 = 2.833	962.07
348.15 K, 79325 kPa, m1 = 0.9499	865.42
348.15 K, 79924 kPa, m1 = 3.368	994.3
348.15 K, 79956 kPa, m1 = 1.462	894.65
348.15 K, 80004 kPa, m1 = 0.2335	822.02
348.15 K, 80021 kPa, m1 = 0.5972	844.82
348.15 K, 89923 kPa, m1 = 3.368	999.65
348.15 K, 89926 kPa, m1 = 0.2335	827.8
348.15 K, 89931 kPa, m1 = 2.272	944.08
348.15 K, 89932 kPa, m1 = 1.462	900.39
348.15 K, 89935 kPa, m1 = 0.9499	871.34
348.15 K, 89954 kPa, m1 = 2.833	973.13
348.15 K, 99845 kPa, m1 = 1.462	905.92
348.15 K, 99934 kPa, m1 = 3.368	1004.87
348.15 K, 99935 kPa, m1 = 0.9499	876.39
348.15 K, 99945 kPa, m1 = 2.272	949.54
348.15 K, 99957 kPa, m1 = 0.2335	833.35
348.15 K, 99968 kPa, m1 = 2.833	978.42
348.15 K, 99985 kPa, m1 = 0.5972	855.43
348.16 K, 10021 kPa, m1 = 2.272	890.16
348.16 K, 10032 kPa, m1 = 3.368	947.88
348.16 K, 10034 kPa, m1 = 1.462	843.52
348.16 K, 19902 kPa, m1 = 0.5972	799.98
348.16 K, 29784 kPa, m1 = 2.272	906.12
348.16 K, 30024 kPa, m1 = 2.833	936.13
348.16 K, 49923 kPa, m1 = 0.2335	802.07
348.16 K, 49952 kPa, m1 = 3.368	976.77
348.16 K, 59932 kPa, m1 = 2.272	926.65
348.16 K, 69784 kPa, m1 = 1.462	888.55
348.16 K, 70013 kPa, m1 = 0.5972	838.69
348.16 K, 79926 kPa, m1 = 2.833	967.67
348.17 K, 50201 kPa, m1 = 1.462	875.81
348.17 K, 69845 kPa, m1 = 0.2335	816.09
353.09 K, 80053 kPa, m1 = 1.462	891.89
353.1 K, 9980 kPa, m1 = 1.462	839.5
353.1 K, 19703 kPa, m1 = 1.462	848.5
353.1 K, 29947 kPa, m1 = 1.462	857.25
353.1 K, 39836 kPa, m1 = 1.462	865.06
353.1 K, 49993 kPa, m1 = 1.462	872.5
353.1 K, 60279 kPa, m1 = 1.462	879.53
353.1 K, 69928 kPa, m1 = 1.462	885.72
353.1 K, 89979 kPa, m1 = 1.462	897.68
353.1 K, 99915 kPa, m1 = 1.462	903.29
353.11 K, 5043 kPa, m1 = 1.462	834.64
353.13 K, 1217 kPa, m1 = 1.462	830.74
353.13 K, 5143 kPa, m1 = 0.5972	781.1
353.13 K, 10028 kPa, m1 = 2.272	886.04
353.13 K, 20124 kPa, m1 = 2.272	895.23
353.13 K, 29947 kPa, m1 = 2.272	902.89
353.13 K, 89945 kPa, m1 = 0.2335	824.73
353.13 K, 99992 kPa, m1 = 2.272	946.74
353.14 K, 9986 kPa, m1 = 2.833	916.2
353.14 K, 19985 kPa, m1 = 0.2335	772.17
353.14 K, 20259 kPa, m1 = 0.5972	796.52
353.14 K, 29993 kPa, m1 = 0.5972	804.77
353.14 K, 39486 kPa, m1 = 2.272	909.8
353.14 K, 49965 kPa, m1 = 2.833	946.54
353.14 K, 49994 kPa, m1 = 2.272	916.93
353.14 K, 60014 kPa, m1 = 2.272	924.01
353.14 K, 69979 kPa, m1 = 2.272	929.91
353.14 K, 80071 kPa, m1 = 2.272	936.01
353.14 K, 89925 kPa, m1 = 2.833	970.1
353.14 K, 89993 kPa, m1 = 2.272	941.4
353.15 K, 1023 kPa, m1 = 0.2335	752.56
353.15 K, 1302 kPa, m1 = 2.833	908.32
353.15 K, 1405 kPa, m1 = 0.9499	799.45
353.15 K, 5002 kPa, m1 = 0.2335	756.87
353.15 K, 5015 kPa, m1 = 2.833	911.75
353.15 K, 5074 kPa, m1 = 0.9499	803.32
353.15 K, 9985 kPa, m1 = 0.9499	808.32
353.15 K, 10021 kPa, m1 = 0.2335	762.65
353.15 K, 19924 kPa, m1 = 0.9499	817.86
353.15 K, 19927 kPa, m1 = 2.833	924.6
353.15 K, 29784 kPa, m1 = 0.9499	826.6
353.15 K, 29974 kPa, m1 = 0.2335	781.57
